Several values for one entry are separate records, joined by “and”; a condition that tells them apart may be missing. Equal entries are not always repeated.
Key:
[1] = 10-day SC study in-life assessments (mortality, body weight, tolerability); format: in vivo, cynomolgus monkey
Method: (§1) Administration of Compound of Formula IIa. The test agent (compound of formula IIa) was administered daily via subcutaneous injection into the scapular and mid-dorsal areas for 10 days. The first day of dosing was designated as Day 1. Dose formulations were allowed to warm up at ambient temperature for at least 30 minutes prior to dosing, as appropriate. The animals were temporarily restrained for dose administration and were not sedated. The volume for each dose was administered over 1 (preferred) or 2 (as necessary) separated injections within the designated area. If a designated injection site was not available for a given animal on any day, the next available test site in the rotation was used. The injection area was marked as frequently as required to allow appropriate visualization of administration sites. On the last injection occasion for each quadrant, the last site of injection was circled, and the circled site was collected for necropsy.
In-life procedures, observations, and measurements.

[2] = test system: iPSC-derived RPE cells from AMD donors; assay: Cell viability assay on nitrite-modified ECM (Real Time-Glo MT Cell Viability Assay); format: cell-based, human; conditions: 10, 100, 1000 nM; 24 hours; versus vehicle-treated cells; FIG. 8J, *p<0.05
Method: General. iPSC-derived RPE were generated from AMD patients (2 atrophic; 1 exudative) and patients with no history of AMD (n=3). To test the therapeutic efficacy of elamipretide and compound of Formula IIa, cell viability was analyzed on nitrite-modified extracellular matrix (ECM), a typical modification of aged Bruch's membrane, for 24 hrs. DNA microarrays were used to elucidate gene expression in AMD-derived RPE cultured on nitrite-modified ECM.
Preparation of RPE cell-derived ECM and nitrite-modified ECM RPE cell-derived ECM plates were prepared from ARPE-19 cells as described in Wang et al., Curr Eye Res. 30:691-702 (2005); Fields et al. (2017); and Moreira et al., Transl Vis Sci Technol. 4:10 (2015). ECM on 96-well plates were used to create two experimental plating surfaces (nontreated ECM and nitrite-modified ECM). Nitrite-modified ECM was prepared by adding 100 mM sodium nitrite to ECM followed by incubation at 37° C. for 7 days. Plates were then washed with DPBS and incubated with DPBS for 4 hours to completely remove the nitrite. […]
Cell viability was measured by Real Time-Glo MT Cell Viability Assay (Promega, Madison, WI, www.promega.com) according to the manufacturer's protocol. […] Luminescent signals were acquired using a BioTek FLx800 plate reader (BioTek).

[3] = test system: iPSC-derived RPE cells from AMD donors; assay: Measurement of mitochondrial function (Seahorse XF Cell Mito Stress Test); format: cell-based, human; conditions: 10, 100, 1000 nM, treatment began 24 hours prior to assay, FIGS. 8AA-8AL
Method: Measurement of mitochondrial function. Analysis of mitochondrial function was performed on live iPSC-derived RPE cells from AMD donors (n=3; 2 atrophic with GA, 1 exudative) treated with drug (elamipretide, compound of Formula IIa, or vehicle) as described below and iPSC-derived RPE cells from non-diseased controls (n=2) using the XFe96 Extracellular Flux Analyzer (Agilent Technologies, Santa Clara, California, www.agilent.com) and the Seahorse XF Cell Mito Stress Test (CMST) Kit (Agilent Technologies). iPSC-derived RPE cells were seeded onto a laminin-coated Seahorse XF plates and grown until confluent. Data were normalized by cell count. Drug treatments began 24 hours prior to assay. […]
Cells were stained with DAPI and counted by ImageJ software (National Institute of Health, Bethesda, Maryland, www.nih.gov). […] Oxygen consumption rate was detected under basal conditions followed by the sequential addition of oligomycin, carbonyl cyanide 4-(trifluoromethoxy) phenylhydrazone (FCCP), rotenone, and antimycin A. From these sequential additions, the following parameters can be derived: basal respiration, ATP production, maximal respiration, and spare respiratory capacity.

[4] = Uptake in the retina after 10-day SC dosing, LC-MS/MS; format: in vivo, cynomolgus monkey; conditions: male cynomolgus monkeys 1001-1003, SC 5 mg/kg/day for 10 days, left eye, approximately 24 hours after the last dose
Method: as §1
Tissue collection, preservation, and analysis. Eye tissue (retina) was collected approximately 24 hours after the last dose on Day 10. […]
Tissue samples were prepared and analyzed by methods similar to those described above in Example 3. In brief, concentrations of test article (compound of Formula IIa) in the retina (ng/g tissue) was determined by LC-MS/MS using Formula IIb as a standard.

[5] = SC 5 mg/kg/day for 10 days, 3 males

## Cc1cc(O)cc(C)c1C[C@H](NC(=O)[C@H](N)CCCNC(=N)N)C(=O)N[C@@H](CCCCN)c1nc(Cc2ccccc2)no1.Cl.Cl.Cl [Formula IIa, (R)-2-amino-N—((S)-1-(((S)-5-amino-1-(3-benzyl-1,2,4-oxadiazol-5-yl)pentyl)amino)-3-(4-hydroxy-2,6-dimethylphenyl)-1-oxopropan-2-yl)-5-guanidinopentanamide]
[1]; 5 mg/kg/day for 10 days
  tolerability of administration by subcutaneous injection: well-tolerated
[1]; [5]
  body weights, differences related to administration: no differences in body weights
  mortality during the study: no mortality
[2]
  AMD-derived RPE cell viability on nitrite-modified ECM: significantly enhanced
[3]
  mitochondrial function (ATP production; basal respiration; maximal respiration; spare respiratory capacity): efficacy in improving mitochondrial function
[4]
  Concentration in Retina at Day 11 (individual subjects): 382 ng/g and 336 ng/g and 126 ng/g

Reference: patent US20260263550A1, “METHODS AND COMPOSITIONS FOR TREATING, PREVENTING, INHIBITING, AMELIORATING OR DELAYING THE ONSET OF OPHTHALMIC CONDITIONS” (Stealth BioTherapeutics Inc., priority 2021, published 2026)
